Experimental data taken from ChEMBL document CHEMBL1166009, “A novel and one-pot synthesis of new 1-tosyl pyrrol-2-one derivatives and analysis of carbonic anhydrase inhibitory potencies” (Bioorg Med Chem, 2010).

Legend:
Carbonic anhydrase 1 [1] = biological target: T1, Carbonic anhydrase 1 (Homo sapiens, UniProt P00915); assay: Inhibition of esterase activity of human carbonic anhydrase 1 by spectrophotometry; settings: read-out: I50
Carbonic anhydrase 2 [2] = biological target: T2, Carbonic anhydrase 2 (Homo sapiens, UniProt P00918); assay: Inhibition of esterase activity of human carbonic anhydrase 2 by spectrophotometry; settings: read-out: I50
Carbonic anhydrase 1 [3] = biological target: T1, Carbonic anhydrase 1
Description: Inhibition of esterase activity of human carbonic anhydrase 1 by Lineweaver-Burke plot analysis

Carbonic anhydrase 2 [4] = biological target: T2, Carbonic anhydrase 2
Description: Inhibition of esterase activity of human carbonic anhydrase 2 by Lineweaver-Burke plot analysis

T1 sequence (P00915 2-261 limits assumed): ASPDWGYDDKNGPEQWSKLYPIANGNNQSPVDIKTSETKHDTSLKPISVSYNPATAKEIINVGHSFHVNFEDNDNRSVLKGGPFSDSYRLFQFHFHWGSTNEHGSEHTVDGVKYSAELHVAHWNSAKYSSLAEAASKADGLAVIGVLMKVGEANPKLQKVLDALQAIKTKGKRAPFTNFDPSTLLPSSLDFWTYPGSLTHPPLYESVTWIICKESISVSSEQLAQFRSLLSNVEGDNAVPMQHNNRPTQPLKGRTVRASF

Cc1ccc(S(=O)(=O)n2cccc2)cc1
IC50 (Carbonic anhydrase 1 [1]): 23.1 µM | IC50 (Carbonic anhydrase 2 [2]): 14.3 µM | Ki (Carbonic anhydrase 1 [3]): 42.4 µM | Ki (Carbonic anhydrase 2 [4]): 37.5 µM
